Data published in patent US20250388625A1, “CYCLOSPORINE ANALOGUES” (priority 2022, published 2025).

Key:
[1] = test system: SARS-COV-2 (Alpha, Delta or Omicron isolates); assay: SARS-COV-2 replication in Calu-3 lung epithelial cells by RT-qPCR (FIG. 9B); type: cell-based
Human stem cells (HSC) [2] = assay: Mean fluorescent intensity of transduced human stem cells (FIG. 7); type: cell-based; conditions: Examples 5 and 6
Experimental: Here a different measurement was made of transgene expression using the cells from the same experiment as that above (Example 5). Rather than measuring the number of cells transduced (% infection) the mean fluorescent intensity (greenness of the transgene expressing cells) was measured.

IFITM3 [3] = biological target: T1, IFITM3 (Homo sapiens, UniProt Q01628); assay: IFITM3 levels by immunoblot in IFNβ-treated THP-1 cells (FIG. 9A); type: cell-based; set-up: treated with 10 ng/ml type 1 interferon (IFNβ) overnight to induce IFITM3 expression; endogenous in cells; host or cells: THP-1 (human monocytic cell line), IFNβ-treated; conditions: 5 μM, 6 hours; Actin loading control
Experimental: THP-1 cells (human monocytic cell line) were treated with […] Type I interferon (IFNβ) overnight to induce IFITM3 expression. […] Protein samples were harvested 6 hours later and the IFITM3 levels measured by immunoblot with Actin detected as a loading control. IFN induces IFITM3.

IFITM3 [4] = biological target: T1, IFITM3; type: cell-based; set-up: treated with 10 ng/ml type 1 interferon (IFNβ) overnight to induce IFITM3 expression; endogenous in cells; host or cells: THP-1 (human monocytic cell line), IFNβ-treated
CypA = CypA (Homo sapiens, UniProt P62937); assay: biochemical; type: binding
Experimental: CypA binding was carried out using surface plasmon resonance as described (Warne J Biol Chem. 2016 Feb. 26; 291 (9): 4356-73).
Surface Plasmon Resonance (SPR) using Biacore at 25° C. was used to study the binding interactions between CypA and various inhibitors. The SPR binding experiments used a duel flow cell with a blank reference. The sensor chip surface was initially activated with a mixture of N-hydroxysuccinimide (NHS,) and N-(3-dimethyl-aminopropyl)-N′-ethyl-carbodiimide hydrochloride (EDC) for 420 s with a flow rate of 10 μl/min on blank flow cell 1 in addition to flow cell 2.
CypA protein was diluted to a concentration of 50 μg/mL by the addition of 10 mM sodium acetate pH 5 solution before immobilisation and covalent attachment to the carboxy-methylated dextran matrix of the Biacore CM5 sensor chip. CypA was run against the surface for 420 s and then any unreacted surface was quenched by 420 s of ethanolamine.
Immobilisations were carried out in the presence of JW47 (Warne J Biol Chem. 2016 Feb. 26; 291 (9): 4356-73).
No regeneration stage was required if the dissociation time was sufficient.
Solvent correction was carried out in each experiment using 8 different DMSO dilutions as reference: 2.8%, 2.6%, 2.4%, 2.2%, 2%, 1.8%, 1.6% & 1.5%.
A 50/50 mixture of buffer and DMSO is required to include a wash cycle in the experiment.
50 μl of CypA (0.1 mg/ml)+40 μL of 10 mM sodium acetate pH5+10 μl of 600 μM of JW47 DMSO solution. This mixture was allowed to stand at room temperature for 10 mins prior to set-up in the injection rack.

Human stem cells (HSC) [5] = assay: Cell viability of human stem cells (FIG. 5); conditions: compared with PS+LB treatment

Sequence of CypA (P62937 whole entry): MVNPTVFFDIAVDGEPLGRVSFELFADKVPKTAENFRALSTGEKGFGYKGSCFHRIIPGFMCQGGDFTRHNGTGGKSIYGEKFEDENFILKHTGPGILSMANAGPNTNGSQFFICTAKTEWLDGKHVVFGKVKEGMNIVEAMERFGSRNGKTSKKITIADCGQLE
T1 sequence (Q01628 whole entry): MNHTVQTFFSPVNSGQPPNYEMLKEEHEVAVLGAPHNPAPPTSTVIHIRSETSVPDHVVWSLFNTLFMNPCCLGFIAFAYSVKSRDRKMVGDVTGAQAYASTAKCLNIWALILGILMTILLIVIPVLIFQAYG

CC[C@@H]1NC(=O)[C@H]([C@H](O)[C@H](C)C/C=C/c2ccc(C(=O)OCCn3ccnc3)cc2)N(C)C(=O)[C@H](C(C)C)N(C)C(=O)[C@H](CC(C)C)N(C)C(=O)[C@H](CC(C)C)N(C)C(=O)[C@@H](C)NC(=O)[C@H](C)NC(=O)[C@H](CC(C)C)N(C)C(=O)[C@H](C(C)C)NC(=O)[C@H](CC(C)C)N(C)C(=O)CN(C)C1=O [JW3-158, 2-(1H-imidazol-1-yl)ethyl-4-((4R,5R,E)-5-((2S,5S,11S,14S,17S,20S,23R,26S,29S,32S)-5-ethyl-11,17,26,29-tetraisobutyl-14,32-diisopropyl-1,7,10,16,20,23,25,28,31-nonamethyl-3,6,9,12,15,18,21,24,27,30,33-undecaoxo-1,4,7,10,13,16,19,22,25,28,31-undecaazacyclotritriacontan-2-yl)-5-hydroxy-4-methylpent-1-en-1-yl)benzoate]
inhibition of viral replication (E copies, fold change vs DMSO) [1]: inhibits Delta and Omicron replication to a greater extent than Alpha | overall performance as transduction enhancer in stem cells (Human stem cells (HSC) [2]): not working so well | IFITM3 protein levels by immunoblot (IFITM3 [3]): most potent effect | fold rescue compared to inhibited baseline (IFITM3 [4]): 29.2 fold | koff (CypA): 0.00217 s⁻¹ | kon (CypA): 13400 M⁻¹ s⁻¹ | Kd (CypA; Kd (Affinity), SPR, Biacore, 25° C.): 1830 nM | Kd (CypA; Kd (Kinetics), SPR, Biacore, 25° C.): 160 nM | Max Response (CypA; SPR, Biacore, 25° C.): 27.0 RU | cell viability after treatment (Human stem cells (HSC) [5]): viability is good
